Laboratory results published in paper PMC4984914 (British Journal of Cancer, 2016).

Experiments:
Type in all cases: in vivo
[1] = Preclinical plasma level of cleavage product 12ADT-Asp after dosing; settings: monkeys; any time after dosing of mipsagargin
[2] = as above; settings: mice; any time after dosing of mipsagargin
[3] = as above; settings: rats; any time after dosing of mipsagargin

Measured: Level of cleavage product 12ADT-Asp in plasma

C/C=C(/C)C(=O)O[C@H]1C(C)=C2[C@H]([C@@H]1OC(=O)CCCCCCC)[C@@](C)(OC(C)=O)C[C@H](OC(=O)CCCCCCCCCCCNC(=O)C[C@H](N)C(=O)O)[C@@]1(O)[C@H]2OC(=O)[C@@]1(C)O [12ADT-Asp]
virtually undetectable: all assays above
